# Where two headings read alike, the source gives them in different places.
# Target: human GPIIb/IIIa receptor (Homo sapiens (Human), UniProt P05106+P08514)
# Test: Affinity assay: displacement of tritiated reference compound from immobilized purified GPIIb/IIIa
# Format: binding
# Procedure: Affinity assay: In the first step human GPIIb/IIIa purified from human platelets was immobilized on a 96-well solid plate. After 48 hours the plates were washed and the unspecific binding sites were blocked with Roti®-Block. 2. In the next step, the plates were simultaneously incubated with a tritium labeled known GPIIb/IIIa binder (^3H) mixed with increasing concentrations of the novel small molecule compounds (inhibitor, ^19F). The higher the affinity of the inhibitor, the lower the bound fraction of the tritiated known GPIIb/IIIa binder (^3H) was. The fraction of tritiated compound (^3H), which is not displaced by inhibitor, was measured in a microplate scintillation counter.
# Purified human glycoprotein IIb/IIIa (20 mM Tris-HCl, 0.1 M NaCl, 0.1% Triton X-100, 1 mM CaCl2, 0.05% NaN3, 50% Glycerol, pH 7.4) was purchased from Enzyme Research Laboratories Inc. (South Bend, Ind.). The GPIIb/IIIa receptor was diluted in phosphate-buffered saline (Dulbecco's Phosphate Buffered Saline (D-PBS(+)) with calcium and magnesium, GIBCO®, Invitrogen) with 0.01% bovine serum albumin (albumin from bovine serum—lyophilized powder, ≧96%, Sigma).
# The GPIIb/IIIa receptor was immobilized 48 hours at least (100 μL per well, 48 to maximum 96 hours) on a 96-well solid plate (Immuno Plate MaxiSorp™, Nunc, Roskilde, Denmark) at 277 K to 280 K and at a concentration of 0.1 μg per well to 1 μg per well. As negative control one row of the plate (n=8) was incubated just with 2% bovine serum albumin (200 μper well, albumin from bovine serum—lyophilized powder, […], Sigma, diluted in D-PBS(+)). After washing three times with the wash buffer (230 μL per well, Dulbecco's Phosphate Buffered Saline (D-PBS (−)) contains no calcium or magnesium, GIBCO®, Invitrogen) residual exposed plastic and unspecific binding sites were blocked by incubating the plate with a special blocking solution (200 μL per well, Roti®-Block, Carl Roth GmbH Co KG, Karlsruhe) containing 2% bovine serum albumin (Albumin from bovine serum—lyophilized powder, ≧96%, Sigma) 1 hour at room temperature.
# After washing three times with the wash buffer 50 μL of tritiated reference compound (60 nM, ^3H-labeled compound) and 50 μL of novel compound (inhibitor, ^19F) were simultaneously added to each well and incubated for 1 hour at room temperature. Several concentrations of each novel inhibitor (0.1, 1, 2, 5, 10, 20 50, 100, 200, 500, 1000, 2000, 5000, 10000 and 20000 nM) were investigated. At each concentration of inhibitor a fourfold determination was performed.
# The maximum value of tritiated reference compound was determined without addition of inhibitor (n=8). To exclude unspecific binding of ^3H-reference compound wells without glycoprotein receptors were used as negative controls (n=12, identically treated just without GP IIb/IIIa receptors).
# After one hour the plate was washed three times with phosphate-buffered saline (200 μL per well, Dulbecco's Phosphate Buffered Saline (D-PBS(+)), GIBCO®, Invitrogen). Following 140 μL of liquid scintillation cocktail (MicroScint™ 40 aqueous, Perkin Elmer) was added to each well. After 15 min at room temperature the plates were measured at the microplate scintillation counter (TopCount NXT v2.13, Perkin Elmer, Packard Instrument Company).
# In the first step human glycoprotein IIb/IIIa, which is purified from human platelets, was immobilized on a 96-well solid plate. After 48 hours at least the plates were washed and the unspecific binding sites were blocked with Roti®-Block. In the next step, the plates were simultaneously incubated with a tritium labeled reference compound and the novel small molecule compound (inhibitor). The higher the affinity of the inhibitor, the smaller is the bound fraction of reference compound. The fraction of tritiated reference compound, which is not displaced by inhibitor, was measured at a microplate scintillation counter.
# [1] = 19F compounds vs 60 nM 3H-labeled reference compound, 1 hour at room temperature, read-out: IC50 human
# [2] = values repeated beside the 18F-compound, read-out: IC50 human (corresponding 19F-compound, Table 2)
# Chain of human GPIIb/IIIa receptor (P08514 32-887): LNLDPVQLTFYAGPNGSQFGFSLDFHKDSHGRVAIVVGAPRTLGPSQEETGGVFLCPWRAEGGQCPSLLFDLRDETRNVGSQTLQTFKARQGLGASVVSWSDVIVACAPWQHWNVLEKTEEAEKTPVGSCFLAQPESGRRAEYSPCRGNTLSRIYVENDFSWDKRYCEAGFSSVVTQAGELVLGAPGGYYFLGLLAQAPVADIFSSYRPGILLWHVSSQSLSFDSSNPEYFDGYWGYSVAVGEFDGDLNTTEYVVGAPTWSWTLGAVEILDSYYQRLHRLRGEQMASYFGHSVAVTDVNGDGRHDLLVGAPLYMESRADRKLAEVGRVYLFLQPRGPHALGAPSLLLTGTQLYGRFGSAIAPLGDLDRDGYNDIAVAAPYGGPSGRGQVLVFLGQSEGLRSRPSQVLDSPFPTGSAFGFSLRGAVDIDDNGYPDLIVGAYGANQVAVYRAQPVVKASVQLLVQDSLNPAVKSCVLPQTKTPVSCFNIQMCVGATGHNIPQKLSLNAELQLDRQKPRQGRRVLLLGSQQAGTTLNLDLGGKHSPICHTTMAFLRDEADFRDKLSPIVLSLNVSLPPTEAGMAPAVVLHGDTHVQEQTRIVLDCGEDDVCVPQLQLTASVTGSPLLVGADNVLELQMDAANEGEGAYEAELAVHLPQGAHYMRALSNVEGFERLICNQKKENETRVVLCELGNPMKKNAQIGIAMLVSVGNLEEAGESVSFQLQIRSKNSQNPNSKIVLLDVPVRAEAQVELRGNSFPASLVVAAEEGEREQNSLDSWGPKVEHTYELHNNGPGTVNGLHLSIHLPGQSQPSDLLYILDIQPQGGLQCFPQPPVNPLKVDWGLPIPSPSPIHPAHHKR
# Chain of human GPIIb/IIIa receptor (P08514 891-1039 partner): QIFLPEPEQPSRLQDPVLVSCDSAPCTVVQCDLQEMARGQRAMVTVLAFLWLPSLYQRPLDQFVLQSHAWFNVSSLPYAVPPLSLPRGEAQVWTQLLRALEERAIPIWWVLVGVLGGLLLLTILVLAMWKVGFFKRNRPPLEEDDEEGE
# Chain of human GPIIb/IIIa receptor (P05106 27-788): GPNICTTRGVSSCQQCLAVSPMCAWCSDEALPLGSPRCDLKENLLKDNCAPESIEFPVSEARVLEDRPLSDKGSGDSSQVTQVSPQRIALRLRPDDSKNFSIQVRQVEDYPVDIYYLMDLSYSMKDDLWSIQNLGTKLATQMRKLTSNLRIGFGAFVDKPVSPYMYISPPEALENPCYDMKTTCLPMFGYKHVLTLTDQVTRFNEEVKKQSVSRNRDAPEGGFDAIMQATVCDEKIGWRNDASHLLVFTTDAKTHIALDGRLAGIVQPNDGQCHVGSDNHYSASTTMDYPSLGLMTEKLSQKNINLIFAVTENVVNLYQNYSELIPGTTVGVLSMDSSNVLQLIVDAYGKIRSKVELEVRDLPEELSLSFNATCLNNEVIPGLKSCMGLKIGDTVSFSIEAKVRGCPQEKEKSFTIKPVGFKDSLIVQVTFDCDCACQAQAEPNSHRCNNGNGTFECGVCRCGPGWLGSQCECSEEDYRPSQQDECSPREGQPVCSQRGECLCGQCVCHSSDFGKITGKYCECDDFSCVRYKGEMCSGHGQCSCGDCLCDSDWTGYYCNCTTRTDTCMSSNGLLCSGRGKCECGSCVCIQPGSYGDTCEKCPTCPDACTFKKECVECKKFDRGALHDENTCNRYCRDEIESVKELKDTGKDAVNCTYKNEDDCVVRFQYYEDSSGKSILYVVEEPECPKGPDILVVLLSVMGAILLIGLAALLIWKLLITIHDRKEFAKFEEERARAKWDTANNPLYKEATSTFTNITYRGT
Compound,IC50 [1] [nM],IC50 [2] [nM]
"O=C(O)C[C@H](NC(=O)[C@@H]1CCCN(C(=O)CCC2CCNCC2)C1)c1cncc(OCCOCCOCCF)c1 [Example 5, (3S)-3-(5-{2-[2-(2-Fluoroethoxy)ethoxy]ethoxy}pyridine-3-yl)-3-[({(3R)-1-[3-(piperidin-4-yl)propanoyl]piperidin-3-yl}carbonyl)amino]propanoic acid]",16,
"O=C(O)C[C@H](NC(=O)[C@@H]1CCCN(C(=O)CCC2CCNCC2)C1)c1cc(F)cc(-c2ccc(OCCF)cc2)c1 [Example 17, (3S)-3-[5-Fluoro-4′-(2-fluoroethoxy)biphenyl-3-yl]-3-[({(3R)-1-[3-(piperidin-4-yl)propanoyl]piperidin-3-yl}carbonyl)amino]propanoic acid]",35,
"N#Cc1cc(-c2cncc([C@H](CC(=O)O)NC(=O)[C@@H]3CCCN(C(=O)CCC4CCNCC4)C3)c2)ccc1F [Example 9, (3S)-3-[5-(3-Cyano-4-fluorophenyl)pyridin-3-yl]-3-[({(3R)-1-[3-(piperidin-4-yl)propanoyl]piperidin-3-yl}carbonyl)amino]propanoic acid]",21,21
"O=C(O)C[C@H](NC(=O)[C@@H]1CCCN(C(=O)CCC2CCNCC2)C1)c1ccc(OCCF)cc1 [Example 2, (3S)-3-[4-(2-Fluoroethoxy)phenyl]-3-[({(3R)-1-[3-(piperidin-4-yl)propanoyl]piperidin-3-yl}carbonyl)amino]propanoic acid]",29,29
"N#Cc1ccc(COc2cncc([C@H](CC(=O)O)NC(=O)[C@@H]3CCCN(C(=O)CCC4CCNCC4)C3)c2)cc1F [Example 13, (3S)-3-{5-[(4-Cyano-3-fluorobenzyl)oxy]pyridin-3-yl}-3-[({(3R)-1-[3-(piperidin-4-yl)propanoyl]piperidin-3-yl}carbonyl)amino]propanoic acid]",7,
"O=C(O)C[C@H](NC(=O)[C@@H]1CCCN(C(=O)CCC2CCNCC2)C1)c1cncc(-c2ccc(F)c([N+](=O)[O-])c2)c1 [Example 11, (3S)-3-[5-(4-Fluoro-3-nitrophenyl)pyridin-3-yl]-3-[({(3R)-1-[3-(piperidin-4-yl)propanoyl]piperidin-3-yl}carbonyl)amino]propanoic acid]",14,
"N#Cc1ccc([C@H](CC(=O)O)NC(=O)[C@@H]2CCCN(C(=O)CCC3CCNCC3)C2)cc1F [Example 14, (3S)-3-(4-Cyano-3-fluorophenyl)-3-[({(3R)-1-[3-(piperidin-4-yl)propanoyl]piperidin-3-yl}carbonyl)amino]propanoic acid]",15,
"N#Cc1cc(COc2cncc([C@@H](CC(=O)O)NC(=O)[C@H]3CCCN(C(=O)CCC4CCNCC4)C3)c2)ccc1F (stereo in doubt) [Example 12, (3R)-3-{5-[(3-Cyano-4-fluorobenzyl)oxy]pyridin-3-yl}-3-[({(3S)-1-[3-(piperidin-4-yl)propanoyl]piperidin-3-yl}carbonyl)amino]propanoic acid]",8,
"O=C(O)C[C@H](NC(=O)[C@@H]1CCCN(C(=O)CCC2CCNCC2)C1)c1cccc(OCCOCCOCCF)c1 [Example 4, (3S)-3-(3-{2-[2-(2-Fluoroethoxy)ethoxy]ethoxy}phenyl)-3-[({(3R)-1-[3-(piperidin-4-yl)propanoyl]piperidin-3-yl}carbonyl)amino]propanoic acid]",84,
"N#Cc1ccc(-c2cncc([C@H](CC(=O)O)NC(=O)[C@@H]3CCCN(C(=O)CCC4CCNCC4)C3)c2)cc1F [Example 10, (3S)-3-[5-(4-Cyano-3-fluorophenyl)pyridin-3-yl]-3-[({(3R)-1-[3-(piperidin-4-yl)propanoyl]piperidin-3-yl}carbonyl)amino]propanoic acid]",15,

# Results, then the molecule that gave them:
IC50 [1] [nM],IC50 [2] [nM],Compound
3,3,"O=C(O)C[C@H](NC(=O)[C@@H]1CCCN(C(=O)CCC2CCNCC2)C1)c1cncc(CCc2ccc(OCCF)cc2)c1 [Example 18, (3S)-3-(5-{2-[4-(2-Fluoroethoxy)phenyl]ethyl}pyridin-3-yl)-3-[({(3R)-1-[3-(piperidin-4-yl)propanoyl]piperidin-3-yl}carbonyl)amino]propanoic acid]"
14,,"O=C(O)C[C@H](NC(=O)[C@@H]1CCCN(C(=O)CCC2CCNCC2)C1)c1cncc(-c2ccccc2OCCF)c1 [Example 8, (3S)-3-{5-[2-(2-Fluoroethoxy)phenyl]pyridin-3-yl}-3-[({(3R)-1-[3-(piperidin-4-yl)propanoyl]piperidin-3-yl}carbonyl)amino]propanoic acid]"
5,,"O=C(O)C[C@H](NC(=O)[C@@H]1CCCN(C(=O)CCC2CCNCC2)C1)c1cncc(C#Cc2ccc(OCCF)cc2)c1 [Example 15, (3S)-3-(5-{[4-(2-Fluoroethoxy)phenyl]ethynyl}pyridin-3-yl)-3-[({(3R)-1-[3-(piperidin-4-yl)propanoyl]piperidin-3-yl}carbonyl)amino]propanoic acid]"
6,,"O=C(O)C[C@H](NC(=O)[C@@H]1CCCN(C(=O)CCC2CCNCC2)C1)c1cncc(C#Cc2cccc(OCCF)c2)c1 [Example 16, (3S)-3-(5-{[3-(2-Fluoroethoxy)phenyl]ethynyl}pyridin-3-yl)-3-[({(3R)-1-[3-(piperidin-4-yl)propanoyl]piperidin-3-yl}carbonyl)amino]propanoic acid]"
7,,"O=C(O)C[C@H](NC(=O)[C@@H]1CCCN(C(=O)CCC2CCNCC2)C1)c1cncc(C=Cc2cccc(OCCF)c2)c1 (mixture of isomers) [Example 20, (E/Z)(3S)-3-(5-{2-[3-(2-Fluoroethoxy)phenyl]ethenyl}pyridin-3-yl)-3-[({(3R)-1-[3-(piperidin-4-yl)propanoyl]piperidin-3-yl}carbonyl)amino]propanoic acid]"
16,,"O=C(O)C[C@H](NC(=O)[C@@H]1CCCN(C(=O)CCC2CCNCC2)C1)c1cncc(-c2cccc(OCCF)c2)c1 [Example 6, (3S)-3-{5-[3-(2-Fluoroethoxy)phenyl]pyridin-3-yl}-3-[({(3R)-1-[3-(piperidin-4-yl)propanoyl]piperidin-3-yl}carbonyl)amino]propanoic acid]"
3,3,"O=C(O)C[C@H](NC(=O)[C@@H]1CCCN(C(=O)CCC2CCNCC2)C1)c1cncc(CCc2cccc(OCCF)c2)c1 [Example 19, (3S)-3-(5-{2-[3-(2-Fluoroethoxy)phenyl]ethyl}pyridin-3-yl)-3-[({(3R)-1-[3-(piperidin-4-yl)propanoyl]piperidin-3-yl}carbonyl)amino]propanoic acid]"

# Reference: patent US9345793B2, “Compounds for binding to the platelet specific glycoprotein IIB/IIIA and their use for imaging of thrombi” (PIRAMAL IMAGING SA, priority 2011, dated 2016)
